Laboratory results as given in US7183252B2, “Indole peptidomimetics as thrombin receptor antagonists” (Ortho-McNeil Pharmaceutical, Inc., priority 1999, dated 2007).
Read-outs that look alike come from different tables or passages of the source.

Experiments:
gel-filtered platelets = test: In vitro inhibition of thrombin-induced gel-filtered platelet aggregation; type: cell-based; settings: human gel-filtered platelets, agonist thrombin 50 μL of 1 unit/mL, read-out: Thrmb IC50 (Thrombin-induced aggregation of gel-filtered platelets)
Procedure: In Vitro Inhibition of Thrombin-Induced Gel-Filtered Platelet Aggregation Assay
The percentage of platelet aggregation is calculated as an increase in light transmission of compound-treated platelet concentrate vs. control-treated platelet concentrate. Human blood is obtained from drug free, normal donors in tubes containing 0.13M sodium citrate. Platelet rich plasma (PRP) is collected by centrifugation of whole blood at 200×g for 10 min at 25° C. The PRP (5 mL) is gel filtered through Sepharose 2B (bed volume 50 mL), and the platelet count is adjusted to 2×10^7 platelets per sample. The following constituents are added to a siliconized cuvette: concentrated platelet filtrate and Tyrode's buffer (0.14M NaCl, 0.0027M KCl, 0.012M NaHCO3, 0.76 mM Na2HPO4, 0.0055M glucose, 2 mg/mL BSA and 5.0 mM HEPES @ pH 7.4) in an amount equal to 350 μL 50 μL of 20 mM calcium and 50 μL of the test compound. Aggregation is monitored in a BIODATA aggregometer for the 3 min following the addition of agonist (thrombin 50 μL of 1 unit/mL).
(§1) Table 7 contains IC50 values (μM) of the compounds in a thrombin receptor binding assay, and IC50 values (μM) against platelet aggregation stimulated by thrombin.

[1] = biological target: T1, thrombin receptor (PAR-1) (Homo sapiens, UniProt P25116); test: In vitro thrombin receptor binding assay (CHRF membranes); settings: tritiated 721-40 radioligand, read-out: Bndg IC50 (Thrombin receptor binding)
T1 construct: CHRF membranes (Jones, Biochim. Biophys. Acta 1992, 1136, 272) are thawed from −70° C; endogenous in cells; host or cells: CHRF cell membranes
T1 sequence (P25116 22-425): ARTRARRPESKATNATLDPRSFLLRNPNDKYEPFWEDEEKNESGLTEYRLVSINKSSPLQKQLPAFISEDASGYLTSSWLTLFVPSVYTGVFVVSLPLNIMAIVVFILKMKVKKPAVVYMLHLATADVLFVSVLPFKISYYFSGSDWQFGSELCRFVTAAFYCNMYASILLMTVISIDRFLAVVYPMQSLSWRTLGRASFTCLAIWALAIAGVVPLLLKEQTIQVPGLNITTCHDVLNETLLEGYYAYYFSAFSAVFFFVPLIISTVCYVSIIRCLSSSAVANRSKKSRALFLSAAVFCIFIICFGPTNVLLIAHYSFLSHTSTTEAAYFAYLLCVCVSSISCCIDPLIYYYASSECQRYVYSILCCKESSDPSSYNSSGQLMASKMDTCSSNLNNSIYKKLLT
Procedure: In Vitro Thrombin Receptor Binding Assay
CHRF membranes (Jones, Biochim. Biophys. Acta 1992, 1136, 272) are thawed from −70° C., centrifuged at maximum speed for 5 min, washed twice with binding buffer (50 mM HEPES containing 5 mM MgCl2 and 0.1% BSA), and re-suspended in binding buffer (25 μg/[…]). 100 μL of membranes are added to the 24-Wallac plates and delivered to the Tomtech apparatus. In a typical experiment, 6 μL of samples (from a 125 μg/mL intermediary plate, 20% DMSO) and 44 μL buffer are delivered to the plates (final conc. of compounds is 3.7 μg/mL, 0.6% DMSO). Similarly, 6 μL 20% DMSO and 44 μL buffer are delivered to both column 1 (NSB) and column 12 (TB). 10 μL Ser-pFPhe-Har-Leu-Har-Lys-Tyr-NH2 (721–40; 500 μM in deionized water) is added to column 1. 50 μL tritiated 721–40 (specific activity 46 Ci/mmol) is added to all the wells. The plates are mixed well for 20 seconds, incubated for 30 min,and then harvested with 10 mM HEPES/138 mM NaCl using the Skatron harvester. The filters (GF/C Brandel FPXLR 296) are presoaked 3 h in 0.5% polyethylenimine in HEPES/0.1M N-acetylglucosamine) are set in saran wrap and dried for 3 min in the microwave, and placed in sample bags (Wallac 1450-432). 4.5 mL scintillation fluid (Wallac, Betaplate Scint 1205-440) is added. The bags are sealed, placed in filter cassettes (Wallac 1450-104), and analyzed on the microbeta counter.
as §1

SMILES	IC50 (gel-filtered platelets; Platelet) [nM]	IC50 [1] [nM]	IC50 (gel-filtered platelets) [nM]
COc1ccc(C[C@H](NC(=O)Nc2ccc3c(c2)c(CN2CCCCC2)cn3Cc2ccc(F)cc2)C(=O)N[C@@H](CCCNC(=N)N)C(=O)NCc2ccccc2)cc1 [Compound 162]	13000	5300	
NCCNC(=O)[C@H](CO)NC(=O)[C@H](Cc1ccc(F)c(F)c1)NC(=O)Nc1ccc2c(CN3CCCC3)cn(Cc3c(Cl)cccc3Cl)c2c1 [Compound 150]	1400	100	
CN(Cc1ccccc1)C(=O)[C@H](CCCN)NC(=O)[C@H](Cc1ccc(F)c(F)c1)NC(=O)Nc1ccc2c(CN3CCCC3)cn(Cc3c(Cl)cccc3Cl)c2c1 [Compound 111]	3200	1900	
NCC[C@H](NC(=O)[C@H](Cc1ccc(F)c(F)c1)NC(=O)Nc1cccc2c1c(CN1CCCC1)cn2Cc1c(Cl)cccc1Cl)C(=O)NCCN1CCCC1 [Compound 166]	40300	2000	
C[C@@H](NC(=O)[C@H](CCN)NC(=O)[C@H](Cc1ccc(F)c(F)c1)NC(=O)Nc1ccc2c(CN3CCCC3)cn(Cc3c(Cl)cccc3Cl)c2c1)c1ccccc1 [Compound 157]		480	660
NCC[C@H](NC(=O)[C@H](Cc1cccs1)NC(=O)Nc1ccc2c(CN3CCCC3)cn(Cc3c(Cl)cccc3Cl)c2c1)C(=O)NCc1ccccc1 [Compound 131]	940	1900	
NCC[C@H](NC(=O)[C@H](Cc1ccc(F)c(F)c1)NC(=O)Nc1cccc2c1c(CN1CCCC1)cn2Cc1c(Cl)cccc1Cl)C(=O)NCc1ccccc1 [Compound 165]	4800	49600	
COc1ccc(C[C@H](NC(=O)Nc2ccc3c(CN4CCCC4)cn(Cc4ccccc4F)c3c2)C(=O)N[C@@H](CCCNC(=N)N)C(=O)NCc2ccccc2)cc1 [Compound 7]	1310	3600	
Cc1ccccc1Cn1c(Cl)c(CN2CCCC2)c2ccc(NC(=O)N[C@@H](Cc3cccc(F)c3)C(=O)N[C@@H](CCCN=C(N)N)C(=O)NCc3ccc(F)cc3)cc21 [Compound 173]	2000	760	
COc1ccc(C[C@H](NC(=O)Nc2ccc3c(CN4CCCC4)cn(Cc4ccc(F)c(F)c4)c3c2)C(=O)N[C@@H](CCCNC(=N)N)C(=O)NCc2ccccc2)cc1 [Compound 21]	3200	1100	
N=C(N)NCCC[C@H](NC(=O)[C@H](Cc1ccc2ccccc2c1)NC(=O)Nc1ccc2c(CN3CCCC3)cn(Cc3c(Cl)cccc3Cl)c2c1)C(=O)NCc1ccccc1 [Compound 38]	2500	33500	
NCCC[C@H](NC(=O)[C@H](Cc1ccc(F)c(F)c1)NC(=O)Nc1ccc2c(CN3CCCC3)cn(Cc3c(Cl)cccc3Cl)c2c1)C(=O)NC1CCCC1 [Compound 125]	430	660	
CCN(CC)Cc1cn(CCCc2ccccc2)c2cc(NC(=O)N[C@@H](Cc3ccc(F)c(F)c3)C(=O)N[C@@H](CCCNC(=N)N)C(=O)NCc3ccccc3)ccc12 [Compound 75]	2200	230	
COc1ccc(C[C@H](NC(=O)Nc2ccc3c(CN4CCCC4)cn(Cc4ccc(I)cc4)c3c2)C(=O)N[C@@H](CCCNC(=N)N)C(=O)NCc2ccccc2)cc1 [Compound 23]	8600	3100	
CCN(CC)Cc1cn(CCc2ccc(F)cc2)c2cc(NC(=O)N[C@@H](Cc3ccc(F)c(F)c3)C(=O)N[C@@H](CCCNC(=N)N)C(=O)NCc3ccccc3)ccc12 [Compound 76]	1100	200	
CC(=N)NCC[C@H](NC(=O)[C@H](Cc1ccc(F)c(F)c1)NC(=O)Nc1ccc2c(CN3CCCC3)cn(Cc3c(Cl)cccc3Cl)c2c1)C(=O)NCc1ccccc1 [Compound 118]	280	430	

SMILES	IC50 (gel-filtered platelets; Platelet) [nM]	IC50 [1] [nM]	IC50 (gel-filtered platelets) [nM]
NCCC[C@H](NC(=O)[C@H](Cc1ccc(F)c(F)c1)NC(=O)Nc1ccc2c(CN3CCCC3)cn(Cc3c(Cl)cccc3Cl)c2c1)C(=O)NCc1ccc(Cl)c(Cl)c1 [Compound 112]	930	2000	
NCCC[C@H](NC(=O)[C@H](Cc1cccc(F)c1)NC(=O)Nc1ccc2c(CN3CCCC3)cn(Cc3c(Cl)cccc3Cl)c2c1)C(=O)NC1Cc2ccccc2C1 [Compound 96]	1000	2800	
N=C(N)NCCC[C@H](NC(=O)[C@H](Cc1ccc(F)c(F)c1)NC(=O)Nc1ccc2c(CN3CCCC3)cn(Cc3ccccc3Cl)c2c1)C(=O)NCc1ccccc1 [Compound 55]	340	11300	
NCC[C@H](NC(=O)[C@H](Cc1cscn1)NC(=O)Nc1ccc2c(CN3CCCC3)cn(Cc3c(Cl)cccc3Cl)c2c1)C(=O)NCc1ccccc1 [Compound 132]	22000	4200	
NC[C@H](NC(=O)[C@H](Cc1ccc(Cl)cc1)NC(=O)Nc1ccc2c(CN3CCCC3)cn(Cc3c(Cl)cccc3Cl)c2c1)C(=O)NCc1ccccc1 [Compound 79]	1300	170	
NCCNC(=O)CCNC(=O)[C@H](Cc1ccc(Cl)cc1)NC(=O)Nc1ccc2c(CN3CCCC3)cn(Cc3c(Cl)cccc3Cl)c2c1 [Compound 146]	11100	2800	
N=C(N)NCCC[C@H](NC(=O)CCNC(=O)[C@H](Cc1ccc(F)c(F)c1)NC(=O)Nc1ccc2c(CN3CCCC3)cn(Cc3c(Cl)cccc3Cl)c2c1)C(=O)NCc1ccccc1 [Compound 108]	3700	2600	
CSCC[C@H](NC(=O)[C@H](Cc1ccc(F)c(F)c1)NC(=O)Nc1ccc2c(CN3CCCC3)cn(Cc3c(Cl)cccc3Cl)c2c1)C(=O)NCc1ccccc1 [Compound 104]	530	11200	
CC(C)[C@H](NC(=O)[C@H](Cc1ccc(Cl)cc1)NC(=O)Nc1ccc2c(CN3CCCC3)cn(Cc3c(Cl)cccc3Cl)c2c1)C(=O)NCCN [Compound 148]	1400	140	
N=C(N)NCCC[C@H](NC(=O)[C@H](Cc1ccc(F)c(F)c1)NC(=O)Nc1ccc2c(CN3CCCC3)cn(Cc3c(Cl)cccc3Cl)c2c1)C(=O)NCc1ccccc1 [Compound 46, L-Argininamide, 3,4-difluoro-N-[[[1-[(2,6-dichlorophenyl)methyl]-3-(1-pyrrolidinylmethyl)-1H-indol-6-yl]amino]carbonyl]-L-phenylalanyl-N-(phenylmethyl)-]		470	280
CSCC[C@H](NC(=O)[C@H](Cc1ccc(F)c(F)c1)NC(=O)Nc1ccc2c(CN3CCCC3)cn(Cc3c(Cl)cccc3Cl)c2c1)C(=O)NCCN [Compound 143]	290	20	
Cc1ccccc1Cn1cc(CN2CCCC2)c2ccc(NC(=O)N[C@@H](Cc3ccc(-c4ccccc4)cc3)C(=O)N[C@@H](CCCNC(=N)N)C(=O)NCc3ccccc3)cc21 [Compound 39]	3500	21500	
NC(N)=NCCC[C@H](NC(=O)[C@H](Cc1ccc(F)c(F)c1)NC(=O)Nc1ccc2c(CN3CCCC3)cn(Cc3ccc(F)cc3)c2c1)C(=O)NCc1ccco1 [Compound 82]	1500	310	
Cc1ccccc1Cn1cc(CN2CCCC2)c2ccc(NC(=O)N[C@@H](Cc3ccc(F)c(F)c3)C(=O)N[C@@H](CCCNC(=N)N)C(=O)NCCc3ccccc3Cl)cc21 [Compound 64]	2200	230	
Nc1ccc(C[C@H](NC(=O)[C@H](Cc2ccc(F)c(F)c2)NC(=O)Nc2ccc3c(CN4CCCC4)cn(Cc4c(Cl)cccc4Cl)c3c2)C(=O)NCc2ccccc2)cc1 [Compound 106]	1100	3300	
